Reference: ChEMBL document CHEMBL1201862, “PubChem BioAssay data set” (2004)
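Where inhibition never reached the appropriate level, the endpoint shown equals the highest concentration tested. Otherwise, values were interpolated linearly from a five-concentration, 48-hour dose response in 96-well plates. Abbreviation: GI50, concentration required for 50% inhibition of growth.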 Active and inactive are the calls of the source. Rule as the data show it: active = GI50 up to about 1.1 µM and inactive = higher.

Legend:
Assay in all cases: NCI tumour cell line growth inhibition, 48 h
A498 = system: A498
DMS-273 = system: DMS-273
EKVX = system: EKVX
NCI-H460 = system: NCI-H460
NCI-H522 = system: NCI-H522
OVCAR-8 = system: OVCAR-8
RPMI-8226 = system: RPMI-8226
SF-539 = system: SF-539
SNB-19 = system: SNB-19
TK-10 = system: TK-10
ACHN = system: ACHN
HL-60 = system: HL-60
OVCAR-5 = system: OVCAR-5
OVCAR-4 = system: OVCAR-4
DU-145 = system: DU-145
Hs-578T = system: Hs-578T
MCF7 = system: MCF7
MDA-MB-231 = system: MDA-MB-231
MDA-MB-435 = system: MDA-MB-435
PC-3 = system: PC-3

Structure (SMILES)	GI50 (A498)	GI50 (DMS-273)	GI50 (EKVX)	GI50 (NCI-H460)	GI50 (NCI-H522)	GI50 (OVCAR-8)	GI50 (RPMI-8226)	GI50 (SF-539)	GI50 (SNB-19)	GI50 (TK-10)	GI50 (ACHN)	GI50 (HL-60)	GI50 (OVCAR-5)	GI50 (OVCAR-4)	GI50 (DU-145)	GI50 (Hs-578T)	GI50 (MCF7)	GI50 (MDA-MB-231)	GI50 (MDA-MB-435)	GI50 (PC-3)
NC(=O)c1ccc([N+](=O)[O-])cc1	> 100 µM (inactive)	> 100 µM (inactive)	> 100 µM (inactive)	> 100 µM (inactive)	> 100 µM (inactive)	> 100 µM (inactive)	> 100 µM (inactive)	> 100 µM (inactive)	> 100 µM (inactive)	> 100 µM (inactive)										
Cn1nc(-c2ccccc2)c(C(=O)/C=C/c2ccc(F)cc2)c(N2CCCC2)c1=O		14.8 µM (inactive)	19.2 µM (inactive)	21.7 µM (inactive)	6.4 µM (inactive)	15.1 µM (inactive)	6.62 µM (inactive)	13.6 µM (inactive)	17.2 µM (inactive)	24 µM (inactive)	24.1 µM (inactive)	0.644 µM (active)								
COCCN1C2=CCCCC2=Nc2c(N)nc(N)nc21	> 100 µM (inactive)	> 100 µM (inactive)		> 100 µM (inactive)	> 100 µM (inactive)	> 100 µM (inactive)	> 100 µM (inactive)	> 100 µM (inactive)	> 100 µM (inactive)	> 100 µM (inactive)	> 100 µM (inactive)	> 100 µM (inactive)	> 100 µM (inactive)							
Cc1ccccc1-n1c(C)nc2c1C(=O)c1ccccc1C2=O	> 100 µM (inactive)	42.5 µM (inactive)	> 100 µM (inactive)	36.1 µM (inactive)	21.2 µM (inactive)	47.9 µM (inactive)		28.2 µM (inactive)	55.5 µM (inactive)	> 100 µM (inactive)	53.3 µM (inactive)	20.9 µM (inactive)	72.3 µM (inactive)	27.5 µM (inactive)						
C=C1C(=O)OC2/C=C(\C)C3OC3/C=C(/C(=O)OC)C(O)C(OC(=O)C3(C)OC3C)C12 (stereo not given)	7.64 µM (inactive)	1.59 µM (inactive)	2.58 µM (inactive)	5.41 µM (inactive)	0.193 µM (active)	1.25 µM (inactive)		2.18 µM (inactive)		2.74 µM (inactive)	3.14 µM (inactive)		16.7 µM (inactive)	2.88 µM (inactive)						
COc1cccc(N2C(=O)[C@H]3CC(C)c4c([nH]c5ccccc45)[C@H]3C2=O)c1 (stereo not given in full)	89.7 µM (inactive)	79.4 µM (inactive)	> 100 µM (inactive)	> 100 µM (inactive)	24.9 µM (inactive)	50 µM (inactive)	38.9 µM (inactive)	29.1 µM (inactive)	28.4 µM (inactive)	55.7 µM (inactive)		> 100 µM (inactive)								
c1cc2[se][se]c3c4cccc5[se][se]c(c(c1)c23)c54	> 100 µM (inactive)	> 100 µM (inactive)		> 100 µM (inactive)	> 100 µM (inactive)	> 100 µM (inactive)	> 100 µM (inactive)	> 100 µM (inactive)	> 100 µM (inactive)	> 100 µM (inactive)	> 100 µM (inactive)	> 100 µM (inactive)	> 100 µM (inactive)	> 100 µM (inactive)						
CC(=O)O[C@@H]1[C@@H](C)[C@]2(CC(c3ccoc3)OC2O)C2CCC3O[C@]3(C)[C@]2(C)[C@@H]1OC(C)=O (stereo not given in full)	95.1 µM (inactive)		56.4 µM (inactive)	29.7 µM (inactive)	27.9 µM (inactive)	37.2 µM (inactive)	25.9 µM (inactive)	22.7 µM (inactive)	> 100 µM (inactive)	47.5 µM (inactive)	38 µM (inactive)	18 µM (inactive)	> 100 µM (inactive)	12.5 µM (inactive)	48.1 µM (inactive)	48.5 µM (inactive)	41.5 µM (inactive)	> 100 µM (inactive)	43.6 µM (inactive)	32.8 µM (inactive)
